Laboratory results reported in US12421276B2 (priority 2016, dated 2025).
Where “and” joins values, the source holds several entries; their conditions need not be identical. Equal values may be shown once. Read-outs that look alike come from different tables or passages of the source. Where a SMILES comes first, the peptide text is derived from it. [ ]: non-standard residue; d: D form. The star is where a group is joined. Hexanoyl = CCCCCC(=O)*; Ahx = NCCCCCC(=O)O

Key:
[1] = Plasma stability study, rat plasma; assay type: in vitro ADME; details: Rat plasma, 1 μM, 37° C.
Protocol: (§1) Human and rat plasma (K2 EDTA) were obtained from Bioreclamation.
(§2) Compounds were dissolved as 0.3 mM DMSO stocks. Compounds were transferred to the plasma at 1 μM on a 96-well deep well plate. After mixing, samples were transferred to several 96-well plates (25 μL/well), and incubated at 37° C. The extent of metabolism was calculated as the disappearance of the test compound, compared to the 0-min control reaction incubations. Propantheline was included as a positive control to verify assay performance.
(§3) At each of the time points, 150 μL of quench solution (50% acetonitrile, 50% methanol with 0.05% formic acid) with internal standard (bucetin for positive ESI mode and warfarin for negative ESI mode) was transferred to each well. Plates were sealed and centrifuged at 4° C. for 15 minutes at 4000 rpm. The supernatant was transferred to fresh plates for LC/MS/MS analysis.
(§4) Elution conditions are detailed in the table below.
(§5) Initial rates of the clearance of test compounds were calculated using linear regression of semi-log plot of % remaining of compounds versus time. The elimination rate constant (equals to −slope) of the linear regression was then used to determine t½ values.

Caco-2 cells = experiment: Caco-2 permeability study with or without P-gp inhibitor GF120918; details: for Caco-2 Cells Permeability Recovery Rate: 1 hr, pH 7.4
Protocol: Buffer=HBSS, pH 7.4 with 5 mM HEPES
Caco-2 cell plates were obtained commercially and were maintained for 21 days at 37° C. with 5% CO2. Cells were washed with Hank's Balanced Salt Solution (HBSS) 30 min before starting the experiment. Test compound solutions were prepared by diluting from DMSO stock into HBSS buffer in the presence or absence of 10 μM of P-gp inhibitor GF120918. The final DMSO concentration is 0.2%. Prior to each experiment, cell monolayer integrity was verified by transendothelial electrical resistance (TEER). Transport experiment was initiated by adding test compounds to the apical (75 μL) side. Transport plates were incubated at 37° C. in a humidified incubator with 5% CO2. Samples were taken from the donor and acceptor compartments after 1 hr and analyzed by liquid chromatography with tandem mass spectrometry (LC/MS/MS).
Apparent permeability (Papp) values were calculated using the following equation: Papp=(dQ/dt)/A/C0
where dQ/dt is the initial rate of amount of test compound transported across cell monolayer, A is the surface area of the filter membrane, and C0 is the initial concentration of the test compound. C0 is calculated for each condition using a 4-point calibration curve.
Absorption quotient between the two assay conditions was calculated by the following equation:
Absorption quotient (AQ)=(Papp, A-B with inhibitor−Papp, A-B without inhibitor)/Papp, A-B with inhibitor where Papp, A-B with inhibitor and Papp, A-B without inhibitor represent the apparent permeability of test compound from the apical to basal side of the cellular monolayer in the presence and absence of 10 μM P-gp inhibitor GF120918, respectively.
All samples were analyzed on LC/MS/MS using an AB Sciex API 4000 instrument, coupled to a Shimadzu LC-20AD LC Pump system. Analytical samples were separated using a Waters Atlantis T3 dC18 reverse phase HPLC column (10 mm×2.1 mm) at a flow rate of 0.5 mL/min. The mobile phase consisted of 0.1% formic acid in water (solvent A) and 0.1% formic acid in acetonitrile (solvent B).

[2] = Plasma stability study, human plasma; assay type: in vitro ADME; details: Human plasma, 1 μM, 37° C.
Protocol: as §1, §2, §3, §4, §5

[3] = Metabolic stability in simulated intestinal fluid (SIF), pH 6.8, with or without pancreatin; assay type: in vitro ADME; details: −Pancreatin, 5 μM, 37° C.
Outline: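 Compounds at 5 μM incubated at 37 °C in freshly made SIF pH 6.8 (NaOH/NaH2PO4/NaCl), with or without 1% pancreatin. Remaining parent measured by LC/MS/MS against 0-min control; t½ derived from elimination rate constant (−slope) of semi-log % remaining vs time.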

[4] = assay type: in vivo, rat
Outline: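 Male SD rats (n=4/group) dosed PO at 13.2 or 14.2 mg/kg (10 mL/kg) and housed in metabolic cages with daily urine collection. EDTA blood sampled predose to 24 h post-dose, centrifuged at 4 °C to plasma, analysed by LC-MS.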

[5] = Metabolic stability in simulated gastric fluid (SGF), pH 1.2, with or without pepsin; assay type: in vitro ADME; details: 5 μM, 37° C.
Outline: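 Compound at 5 μM incubated at 37 °C in SGF (34.2 mM NaCl, pH 1.2) without or with 0.32% pepsin; acetonitrile/formic acid quench at time points, LC/MS/MS. Disappearance relative to 0-min; t½ from elimination rate constant of semi-log % remaining vs time.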

[6] = Rat, PO, 10 mg/kg equiv., n = 4, analyte: Parent (BASE STRUCTURE)
[7] = rat, dosed as Base Structure 20 mg/kg, analyte Parent (Base Structure), Average
[8] = rat, dosed as Base Structure 20 mg/kg, analyte Parent (Base Structure), Combined (average ± std. dev.)
[9] = rat, dosed as Base Structure 20 mg/kg, analyte Parent (Base Structure), individual animals

Question: For CCCCCC(=O)N[C@@H](Cc1ccc(O)cc1)C(=O)N[C@H](C(=O)NCCCCCC(N)=O)[C@@H](C)CC [Base Structure, N-hexanoic-L-tyrosine-L-isoleucine-(6)-aminohexanoic amide, reference compound] (Hexanoyl-Tyr-Ile-[Ahx]-NH2), which “Plasma Stability Half-Life” value [1] is on record?
Answer: 1095.1 min

Question: What about the “Plasma Stability (% Parent Remaining) 0 min” value ([1]; 0 min) of the same compound?
Answer: 100%

Question: What about the “Plasma Stability (% Parent Remaining) 60 min” value ([1]; 60 min) of the same compound?
Answer: 87%

Question: What about the “Plasma Stability (% Parent Remaining) 120 min” value ([1]; 120 min) of the same compound?
Answer: 89%

Question: What about the “Plasma Stability (% Parent Remaining) 240 min” value ([1]; 240 min) of the same compound?
Answer: 83%

Question: What about the “Abs. Quotient” value (Caco-2 cells; (Papp A-B with inhibitor − without inhibitor)/Papp A-B with inhibitor) of the same compound?
Answer: 0.84 and 0.82

Question: And the “Caco-2 Cells Permeability Recovery Rate” value (Caco-2 cells; +GF120918 (10 μM), 10 μM compound)?
Answer: 83% and 96%

Question: And the “Caco-2 Cells Permeability Recovery Rate” value (Caco-2 cells; −GF120918, 10 μM compound)?
Answer: 87% and 91%

Question: What about the “Plasma Stability Half-Life” value [2] of the same compound?
Answer: 209.3 h

Question: And the “Plasma Stability (% Parent Remaining) 0 min” value ([2]; 0 min)?
Answer: 100%

Question: And the “Plasma Stability (% Parent Remaining) 60 min” value ([2]; 60 min)?
Answer: 98%

Question: What about the “Plasma Stability (% Parent Remaining) 120 min” value ([2]; 120 min) of the same compound?
Answer: 102%

Question: And the “Plasma Stability (% Parent Remaining) 240 min” value ([2]; 240 min)?
Answer: 98%

Question: And the “SIF Stability (pH 6.8) Half-Life (min)” value [3]?
Answer: Neg.

Question: And the “SIF Stability (pH 6.8) 0 min” value ([3]; 0 min)?
Answer: 100%

Question: What about the “SIF Stability (pH 6.8) 60 min” value ([3]; 60 min) of the same compound?
Answer: 119%

Question: And the “SIF Stability (pH 6.8) 240 min” value ([3]; 240 min)?
Answer: 113%

Question: And the “AUC0-24” value [4, 6]?
Answer: 0.4 ± 0.2 ng·h/mL

Question: And the “Cmax” value [4, 6]?
Answer: 0.9 ± 0.5 ng/mL

Question: And the “Tmax” value [4, 6]?
Answer: 24 ± 30 min

Question: What about the “AUC 0-t” value [4, 7] of the same compound?
Answer: 0.4468 ng·h/mL

Question: And the Cmax [4, 7]?
Answer: 0.9267 ng/mL

Question: What about the Tlag [4, 7] of the same compound?
Answer: 0 h

Question: And the Tmax [4, 7]?
Answer: 26.6 min

Question: What about the “AUC 0-t” value [4, 8] of the same compound?
Answer: 0.4 ± 0.2 ng·h/mL

Question: What about the Cmax [4, 8] of the same compound?
Answer: 0.9 ± 0.5 ng/mL

Question: And the Tlag [4, 8]?
Answer: 0 ± 0 h

Question: What about the Tmax [4, 8] of the same compound?
Answer: 24 ± 30 min

Question: And the “AUC 0-t” value [4, 9]?
Answer: 0.6164 ng·h/mL and 0.5175 ng·h/mL and 0.2066 ng·h/mL

Question: And the Cmax [4, 9]?
Answer: 0.689 ng/mL and 1.54 ng/mL and 0.551 ng/mL

Question: What about the Tlag [4, 9] of the same compound?
Answer: 0 h

Question: What about the Tmax [4, 9] of the same compound?
Answer: 4.8 min and 15 min and 60 min

Question: And the “SGF Stability (pH 1.2) Half-Life (min)” value ([5]; +Pepsin (0.32%))?
Answer: 26.0 min

Question: What about the “SGF Stability (pH 1.2) 0 min” value ([5]; +Pepsin (0.32%)) of the same compound?
Answer: 100%

Question: And the “SGF Stability (pH 1.2) 60 min” value ([5]; +Pepsin (0.32%))?
Answer: 13%

Question: And the “SGF Stability (pH 1.2) 240 min” value ([5]; +Pepsin (0.32%))?
Answer: 0.2%

Question: And the “SGF Stability (pH 1.2) Half-Life (min)” value ([5]; −Pepsin)?
Answer: Neg.

Question: What about the “SGF Stability (pH 1.2) 0 min” value ([5]; −Pepsin) of the same compound?
Answer: 100%

Question: What about the “SGF Stability (pH 1.2) 60 min” value ([5]; −Pepsin) of the same compound?
Answer: 127%

Question: And the “SGF Stability (pH 1.2) 240 min” value ([5]; −Pepsin)?
Answer: 122%
